From PubChem BioAssay (NCI) come the findings set out here.

What all share (assay): NCI anticancer screen, dose series, 48 h
For assay [1], the system named is DU-145 prostate.
Assay [2] deals with EKVX NSCLC.
The test system of assay [3] is HL-60(TB) leukemia.
In assay [4] the test system is A498 renal.
In assay [5] the test system is U251 CNS.
Assay [6] concerns UACC-62 melanoma.
The test system of assay [7] is MDA-MB-231 breast.
Assay [8] concerns OVCAR-8 ovarian.
Assay [9] relates to NCI-H23 lung.
Assay [10] has as its system A549 NSCLC.

Molecules are shown by their SMILES.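 Test compounds were applied to cells in 96-well plates for 48 hours at 5 doses. GI50 marks 50% less growth. Definition used: TGI = concentration required for complete inhibition of growth.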

As for `N#Cc1c(-c2nc3ccccc3s2)c(=O)oc2cc(O)ccc12`, the TGI was more than 100 µM in assay [1]; more than 100 µM in assay [2]; 66.5 µM in assay [3]; more than 100 µM in assay [4]; more than 100 µM in assay [5]; more than 100 µM in [6]. In addition, the TGI was 82.5 µM in assay [7], more than 100 µM in assay [8], more than 100 µM in [9] and more than 100 µM in assay [10].
As for `COc1cc2c3c(n(C)c(=O)c2cc1OC)-c1cc2c(cc1/C3=C\CCCCCN)OCO2`, the GI50 in assay [1] is 1.88 µM; in assay [2], 16.4 µM; in assay [3], 2.92 µM; in [4], 10.6 µM; in assay [5] it was 1.56 µM; in [6] it was 2.56 µM. In addition, the figures for the GI50 in [7], in [9] and in assay [10] were 2.5 µM, 1.62 µM and 6.53 µM, respectively. In addition, the TGI in assay [1] is 23.1 µM; in [2], 52.2 µM; in assay [3], 21.9 µM; in assay [4], 39.4 µM; in assay [5], 16.7 µM; in assay [6], 25.3 µM. Further, the TGI is 12.9 µM in assay [7], 3.33 µM in assay [8], 13.3 µM in [9] and more than 54.5 µM in assay [10].
As to `N=C1C(c2nc(-c3ccc(Br)cc3)cs2)=C(O)CN1Cc1cccnc1`, the GI50 in assay [1] is 17.4 µM; in assay [2], 56.6 µM; in assay [3] it was 3.42 µM; in assay [4], 1.9 µM; in assay [5], 22.1 µM; in [6], 6.92 µM. Further, the GI50 was 15.9 µM in assay [7], 28.8 µM in [8], 22.5 µM in assay [9] and 26.6 µM in [10]. Further, the TGI was 63.1 µM in [1]; more than 100 µM in [2]; 20.2 µM in [3]; 5.23 µM in assay [4]; more than 100 µM in assay [5]; 30.6 µM in assay [6]. Moreover, the TGI is 43.5 µM in [7], more than 100 µM in assay [8], more than 100 µM in assay [9] and more than 100 µM in assay [10].
For the compound `C=C1C(=O)O[C@H]2[C@H]1CC/C(COC(=O)c1cc3cc(F)ccc3[nH]1)=C\CC[C@@]1(C)O[C@@H]21`, the GI50 in assay [1] is 1.67 µM; in [2], 1.58 µM; in [3], 2.07 µM; in [4] it was 3.35 µM; in [5] it was 1.82 µM; in assay [6], 1.89 µM. Besides, the GI50 is 1.59 µM in assay [7], 2.17 µM in assay [8], 1.9 µM in assay [9] and 3.08 µM in [10]. Further, the TGI in assay [1] was determined as 3.19 µM; in assay [2] it was 3.71 µM; in assay [3], 9.27 µM; in [4], 8.96 µM; in assay [5] it was 3.57 µM; in assay [6], 3.79 µM. The TGI worked out at 3.5 µM in assay [7], 6.67 µM in [8], 4.26 µM in [9] and 8.73 µM in assay [10].
Turning to `O=C(Oc1ccc(Cl)cc1Cl)c1ccccc1Nc1ccnc(C(F)(F)F)c1`, the GI50 was 15.7 µM in [1]; 18.5 µM in [2]; 6.63 µM in assay [3]; 21.5 µM in [4]; 2.29 µM in [6]; 2.24 µM in assay [7]. Besides, the GI50 in assay [8] was 4.79 µM; in [9], 3.51 µM; in assay [10], 11.1 µM. Besides, the TGI in assay [1] is 30.6 µM; in assay [2], 40.9 µM; in assay [3], more than 100 µM; in assay [4], 37.3 µM; in assay [6] it was 7.06 µM; in assay [7] it was 7.92 µM. In addition, the TGI in [8] was determined as 30.8 µM; in assay [9], 13.6 µM; in [10] it was 33.1 µM.
With `Cc1ncc(CN=Cc2ccc(Cl)cc2)c(N)n1`, the TGI in assay [1], in assay [2], in [3], in [4], in assay [5] and in [6] was more than 100 µM throughout. The TGI in assay [7], in assay [8], in [9] and in assay [10] was more than 100 µM throughout.
Take `COc1ccc2c(c1)[nH]c(=O)c1c3cc(C)c(C)cc3cn21`: the GI50 in [1] is less than 0.01 µM; in assay [2], 0.0563 µM; in assay [3], less than 0.01 µM; in assay [4], less than 0.01 µM; in [5], less than 0.01 µM; in [6] it was less than 0.0204 µM. The GI50 in assay [7] is 0.0291 µM; in assay [8], less than 0.0179 µM; in assay [9], 0.0305 µM; in assay [10] it was less than 0.0185 µM. For the same compound, the TGI in assay [1] is 0.188 µM; in assay [2], 4.67 µM; in assay [3], less than 0.013 µM; in assay [4], less than 0.0295 µM; in assay [5], 1.2 µM; in assay [6], 5.32 µM. Besides, the TGI in [7] came out at 1.53 µM; in assay [8], 1.48 µM; in [9], 0.392 µM; in [10] it was 1.32 µM.
On to `CN(C)c1cccc2c(S(=O)(=O)N[C@H]3CC[C@H]4[C@@H]5CCc6cc(O)ccc6[C@H]5CC[C@]34C)cccc12`, for which the GI50 is 2.71 µM in assay [1]; 2.78 µM in assay [3]; 1.75 µM in assay [4]; 2.94 µM in [5]; 1.55 µM in assay [6]; 1.75 µM in [7]. The GI50 in assay [8] is 3.3 µM; in assay [9], 2.99 µM; in assay [10], 2.51 µM. Also, the TGI stood at 8.51 µM in assay [1]; 8.23 µM in [3]; 4 µM in [4]; 10.4 µM in assay [5]; 3.46 µM in assay [6]; 4.41 µM in assay [7]. Moreover, the TGI in assay [8] is 15.9 µM; in assay [9] it was 22 µM; in assay [10], 10.7 µM.
